The record followed here is the Kinase Knowledgebase extract (Sharma et al. 2016).

Structures are written as SMILES.

In this experiment the target is CDK2 (UniProt P24941). Nature of the experiment: Enzyme Assay.

As a reminder, the IC50 is the midpoint of a concentration-inhibition curve. A high value points to a need for much substance.

`CCCCSc1cc(=O)c2c(O)cc(O)c([C@H]3CCN(C)C[C@H]3O)c2o1` returned an IC50 of under 20 µM.

Compound `CN1CCC(c2c(O)cc(O)c3c(=O)cc(Sc4ccc(C(C)(C)C)cc4)oc23)C(O)C1` (configuration not stated) came in with an IC50 of under 20 µM.

`CN1CC[C@H](c2c(O)cc(O)c3c(=O)cc(Sc4ccccc4Cl)oc23)[C@H](O)C1`: the IC50 was under 20 µM.

For the compound `COc1ccc(CSc2cc(=O)c3c(O)cc(O)c(C4CCN(C)CC4O)c3o2)cc1` (configuration not stated), the IC50 was under 20 µM.

For the compound `CN1CCC(c2c(O)cc(O)c3c(=O)cc(SCCO)oc23)C(O)C1` (configuration not stated), the IC50 is under 20 µM.

Consider `COc1ccc(Sc2cc(=O)c3c(O)cc(O)c(C4CCN(C)CC4O)c3o2)cc1` (configuration not stated), for which the IC50 was under 20 µM.

With `CC(=O)NCCSc1cc(=O)c2c(O)cc(O)c(C3CCN(C)CC3O)c2o1` (configuration not stated), the IC50 is under 20 µM.

Regarding `CN1CC[C@H](c2c(O)cc(O)c3c(=O)cc(Oc4ccccc4)oc23)[C@H](O)C1`, the IC50 is under 20 µM.

The compound `CCSc1cc(=O)c2c(O)cc(OC)c([C@H]3CCN(C)C[C@H]3O)c2o1` registered an IC50 of under 20 µM.

`COC(=O)CCSc1cc(=O)c2c(O)cc(O)c([C@H]3CCN(C)C[C@H]3O)c2o1` had an IC50 of under 20 µM.

On to `CN1CC[C@H](c2c(O)cc(O)c3c(=O)cc(SCCO)oc23)[C@H](O)C1`, for which the IC50 was under 20 µM.

`CN1CCC(c2c(O)cc(O)c3c(=O)cc(Sc4ccc(OC(F)(F)F)cc4)oc23)C(O)C1` (configuration not stated): the IC50 is under 20 µM.

`COc1ccc(CSc2cc(=O)c3c(O)cc(O)c([C@H]4CCN(C)C[C@H]4O)c3o2)cc1`: the IC50 is under 20 µM.

With `CN1CC[C@H](c2c(O)cc(O)c3c(=O)cc(Sc4ccccc4)oc23)[C@H](O)C1`, the IC50 is under 20 µM.

The compound `CN1CCC(c2c(O)cc(O)c3c(=O)cc(Sc4ccccc4Cl)oc23)C(O)C1` (configuration not stated) yielded an IC50 of under 20 µM.

With `CCSc1cc(=O)c2c(O)cc(O)c([C@H]3CCN(C)C[C@H]3O)c2o1`, the IC50 is under 20 µM.

Regarding `CN1CC[C@H](c2c(O)cc(O)c3c(=O)cc(SCc4ccccc4)oc23)[C@H](O)C1`, the IC50 is under 20 µM.

Compound `COc1ccc(Sc2cc(=O)c3c(O)cc(O)c([C@H]4CCN(C)C[C@H]4O)c3o2)cc1` yielded an IC50 of under 20 µM.

The compound `CCc1ccc(Sc2cc(=O)c3c(O)cc(O)c(C4CCN(C)CC4O)c3o2)cc1` (configuration not stated) registered an IC50 of under 20 µM.

`Cc1ccc(Sc2cc(=O)c3c(O)cc(O)c(C4CCN(C)CC4O)c3o2)cc1C` (configuration not stated) registered an IC50 of under 20 µM.

Take `CN1CCC(c2c(O)cc(O)c3c(=O)cc(SCc4ccc(C(C)(C)C)cc4)oc23)C(O)C1` (configuration not stated): the IC50 was under 20 µM.

The compound `CC(=O)NCCSc1cc(=O)c2c(O)cc(O)c([C@H]3CCN(C)C[C@H]3O)c2o1` came in with an IC50 of under 20 µM.
